{"source": "the supplement of paper PMC10307832", "assay_in_all_cases": "relative viability (nuclei count vs DMSO), 5 days (fraction); higher = more cells survive", "key": {"201T": {"system": "201T", "procedure,_shortened": "(§1)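 A single step with final 0.05% Triton X-100, 1% formaldehyde and 1 ug/ml Hoechst fixed the cells and stained nuclei 5 days after treatment. Lung cancer cell lines in 1536-well plates had been treated by pin tool the day after seeding with one drug alone or a fixed anchor-drug dose plus five library-drug doses (not always all listed) in √10 steps, and nuclei were counted on 4× images. Relative viability is the ratio of nuclei in treated wells to nuclei in vehicle wells, taken as the median of duplicate plates.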"}, "COR-L 105": {"system": "COR-L 105", "procedure,_shortened": "as §1"}, "ChaGo-K-1": {"system": "ChaGo-K-1", "procedure,_shortened": "as §1"}, "EKVX": {"system": "EKVX", "procedure,_shortened": "as §1"}, "H3255": {"system": "H3255", "procedure,_shortened": "as §1"}, "HARA": {"system": "HARA", "procedure,_shortened": "as §1"}, "HCC-827": {"system": "HCC-827", "procedure,_shortened": "as §1"}, "HOP-62": {"system": "HOP-62", "procedure,_shortened": "as §1"}, "LCLC-103H": {"system": "LCLC-103H", "procedure,_shortened": "as §1"}, "LOU-NH91": {"system": "LOU-NH91", "procedure,_shortened": "as §1"}, "NCI-H1975": {"system": "NCI-H1975", "procedure,_shortened": "as §1"}, "NCI-H2126": {"system": "NCI-H2126", "procedure,_shortened": "as §1"}, "NCI-H2228": {"system": "NCI-H2228", "procedure,_shortened": "as §1"}, "NCI-H23": {"system": "NCI-H23", "procedure,_shortened": "as §1"}, "NCI-H2405": {"system": "NCI-H2405", "procedure,_shortened": "as §1"}, "NCI-H3122": {"system": "NCI-H3122", "procedure,_shortened": "as §1"}, "NCI-H596": {"system": "NCI-H596", "procedure,_shortened": "as §1"}, "NCI-H650": {"system": "NCI-H650", "procedure,_shortened": "as §1"}, "NCI-H661": {"system": "NCI-H661", "procedure,_shortened": "as §1"}, "NCI-H727": {"system": "NCI-H727", "procedure,_shortened": "as §1"}, "PC-3 [JPC-3]": {"system": "PC-3 [JPC-3]", "procedure,_shortened": "as §1"}, "SK-LU-1": {"system": "SK-LU-1", "procedure,_shortened": "as §1"}, "SW 900": {"system": "SW 900", "procedure,_shortened": "as §1"}}}
{"smiles": "CN1CCN(CCOc2cc(OC3CCOCC3)c3c(Nc4c(Cl)ccc5c4OCO5)ncnc3c2)CC1", "note": "[Saracatinib] + CC(=O)Nc1cccc(-n2c(=O)n(C3CC3)c(=O)c3c(Nc4ccc(I)cc4F)n(C)c(=O)c(C)c32)c1 [Trametinib] (partner 0.02 µM)", "values": [{"measurement": "relative viability", "setting": "201T; first compound 0.02 µM", "value": 0.726}, {"measurement": "relative viability", "setting": "201T; first compound 0.2 µM", "value": 0.685}, {"measurement": "relative viability", "setting": "201T; first compound 0.6325 µM", "value": 0.65}, {"measurement": "relative viability", "setting": "201T; first compound 2 µM", "value": 0.615}, {"measurement": "relative viability", "setting": "COR-L 105; first compound 0.02 µM", "value": 0.486}, {"measurement": "relative viability", "setting": "COR-L 105; first compound 0.2 µM", "value": 0.437}, {"measurement": "relative viability", "setting": "COR-L 105; first compound 0.6325 µM", "value": 0.37}, {"measurement": "relative viability", "setting": "COR-L 105; first compound 2 µM", "value": 0.317}, {"measurement": "relative viability", "setting": "ChaGo-K-1; first compound 0.02 µM", "value": 0.935}, {"measurement": "relative viability", "setting": "ChaGo-K-1; first compound 0.2 µM", "value": 0.566}, {"measurement": "relative viability", "setting": "ChaGo-K-1; first compound 0.6325 µM", "value": 0.906}, {"measurement": "relative viability", "setting": "ChaGo-K-1; first compound 2 µM", "value": 0.84}, {"measurement": "relative viability", "setting": "EKVX; first compound 0.02 µM", "value": 0.274}, {"measurement": "relative viability", "setting": "EKVX; first compound 0.6325 µM", "value": 0.37}, {"measurement": "relative viability", "setting": "EKVX; first compound 2 µM", "value": 0.163}, {"measurement": "relative viability", "setting": "H3255; first compound 0.02 µM", "value": 0.636}, {"measurement": "relative viability", "setting": "H3255; first compound 0.2 µM", "value": 0.665}, {"measurement": "relative viability", "setting": "H3255; first compound 0.6325 µM", "value": 0.663}, {"measurement": "relative viability", "setting": "H3255; first compound 2 µM", "value": 0.27}, {"measurement": "relative viability", "setting": "HARA; first compound 0.02 µM", "value": 0.688}, {"measurement": "relative viability", "setting": "HARA; first compound 0.2 µM", "value": 0.624}, {"measurement": "relative viability", "setting": "HARA; first compound 0.6325 µM", "value": 0.836}, {"measurement": "relative viability", "setting": "HARA; first compound 2 µM", "value": 0.344}, {"measurement": "relative viability", "setting": "HCC-827; first compound 0.02 µM", "value": 0.542}, {"measurement": "relative viability", "setting": "HCC-827; first compound 0.2 µM", "value": 0.306}, {"measurement": "relative viability", "setting": "HCC-827; first compound 0.6325 µM", "value": 0.225}, {"measurement": "relative viability", "setting": "HCC-827; first compound 2 µM", "value": 0.156}, {"measurement": "relative viability", "setting": "HOP-62; first compound 0.02 µM", "value": 0.412}, {"measurement": "relative viability", "setting": "HOP-62; first compound 0.2 µM", "value": 0.455}, {"measurement": "relative viability", "setting": "HOP-62; first compound 0.6325 µM", "value": 0.441}, {"measurement": "relative viability", "setting": "HOP-62; first compound 2 µM", "value": 0.398}, {"measurement": "relative viability", "setting": "LCLC-103H; first compound 0.02 µM", "value": 0.716}, {"measurement": "relative viability", "setting": "LCLC-103H; first compound 0.2 µM", "value": 0.58}, {"measurement": "relative viability", "setting": "LCLC-103H; first compound 0.6325 µM", "value": 0.751}, {"measurement": "relative viability", "setting": "LCLC-103H; first compound 2 µM", "value": 0.656}, {"measurement": "relative viability", "setting": "LOU-NH91; first compound 0.02 µM", "value": 0.731}, {"measurement": "relative viability", "setting": "LOU-NH91; first compound 0.2 µM", "value": 0.694}, {"measurement": "relative viability", "setting": "LOU-NH91; first compound 0.6325 µM", "value": 0.758}, {"measurement": "relative viability", "setting": "LOU-NH91; first compound 2 µM", "value": 0.636}, {"measurement": "relative viability", "setting": "NCI-H1975; first compound 0.02 µM", "value": 0.37}, {"measurement": "relative viability", "setting": "NCI-H1975; first compound 0.2 µM", "value": 0.412}, {"measurement": "relative viability", "setting": "NCI-H1975; first compound 0.6325 µM", "value": 0.391}, {"measurement": "relative viability", "setting": "NCI-H1975; first compound 2 µM", "value": 0.267}, {"measurement": "relative viability", "setting": "NCI-H2126; first compound 0.02 µM", "value": 0.592}, {"measurement": "relative viability", "setting": "NCI-H2126; first compound 0.2 µM", "value": 0.509}, {"measurement": "relative viability", "setting": "NCI-H2126; first compound 0.6325 µM", "value": 0.551}, {"measurement": "relative viability", "setting": "NCI-H2126; first compound 2 µM", "value": 0.517}, {"measurement": "relative viability", "setting": "NCI-H2228; first compound 0.02 µM", "value": 0.616}, {"measurement": "relative viability", "setting": "NCI-H2228; first compound 0.2 µM", "value": 0.425}, {"measurement": "relative viability", "setting": "NCI-H2228; first compound 0.6325 µM", "value": 0.703}, {"measurement": "relative viability", "setting": "NCI-H2228; first compound 2 µM", "value": 0.465}, {"measurement": "relative viability", "setting": "NCI-H23; first compound 0.02 µM", "value": 0.344}, {"measurement": "relative viability", "setting": "NCI-H23; first compound 0.6325 µM", "value": 0.351}, {"measurement": "relative viability", "setting": "NCI-H23; first compound 2 µM", "value": 0.218}, {"measurement": "relative viability", "setting": "NCI-H2405; first compound 0.02 µM", "value": 0.646}, {"measurement": "relative viability", "setting": "NCI-H2405; first compound 0.2 µM", "value": 0.616}, {"measurement": "relative viability", "setting": "NCI-H2405; first compound 0.6325 µM", "value": 0.444}, {"measurement": "relative viability", "setting": "NCI-H2405; first compound 2 µM", "value": 0.406}, {"measurement": "relative viability", "setting": "NCI-H3122; first compound 0.02 µM", "value": 0.212}, {"measurement": "relative viability", "setting": "NCI-H3122; first compound 0.2 µM", "value": 0.163}, {"measurement": "relative viability", "setting": "NCI-H3122; first compound 0.6325 µM", "value": 0.154}, {"measurement": "relative viability", "setting": "NCI-H3122; first compound 2 µM", "value": 0.155}, {"measurement": "relative viability", "setting": "NCI-H596; first compound 0.02 µM", "value": 0.636}, {"measurement": "relative viability", "setting": "NCI-H596; first compound 0.2 µM", "value": 0.722}, {"measurement": "relative viability", "setting": "NCI-H596; first compound 0.6325 µM", "value": 0.648}, {"measurement": "relative viability", "setting": "NCI-H596; first compound 2 µM", "value": 0.584}, {"measurement": "relative viability", "setting": "NCI-H650; first compound 0.02 µM", "value": 0.993}, {"measurement": "relative viability", "setting": "NCI-H650; first compound 0.2 µM", "value": 0.877}, {"measurement": "relative viability", "setting": "NCI-H650; first compound 0.6325 µM", "value": 1.03}, {"measurement": "relative viability", "setting": "NCI-H650; first compound 2 µM", "value": 0.92}, {"measurement": "relative viability", "setting": "NCI-H661; first compound 0.02 µM", "value": 0.568}, {"measurement": "relative viability", "setting": "NCI-H661; first compound 0.2 µM", "value": 0.572}, {"measurement": "relative viability", "setting": "NCI-H661; first compound 0.6325 µM", "value": 0.6}, {"measurement": "relative viability", "setting": "NCI-H661; first compound 2 µM", "value": 0.362}, {"measurement": "relative viability", "setting": "NCI-H727; first compound 0.02 µM", "value": 0.369}, {"measurement": "relative viability", "setting": "NCI-H727; first compound 0.2 µM", "value": 0.402}, {"measurement": "relative viability", "setting": "NCI-H727; first compound 0.6325 µM", "value": 0.379}, {"measurement": "relative viability", "setting": "NCI-H727; first compound 2 µM", "value": 0.308}, {"measurement": "relative viability", "setting": "PC-3 [JPC-3]; first compound 0.02 µM", "value": 0.758}, {"measurement": "relative viability", "setting": "PC-3 [JPC-3]; first compound 0.2 µM", "value": 0.587}, {"measurement": "relative viability", "setting": "PC-3 [JPC-3]; first compound 0.6325 µM", "value": 0.534}, {"measurement": "relative viability", "setting": "PC-3 [JPC-3]; first compound 2 µM", "value": 0.494}, {"measurement": "relative viability", "setting": "SK-LU-1; first compound 0.02 µM", "value": 0.51}, {"measurement": "relative viability", "setting": "SK-LU-1; first compound 0.2 µM", "value": 0.364}, {"measurement": "relative viability", "setting": "SK-LU-1; first compound 0.6325 µM", "value": 0.375}, {"measurement": "relative viability", "setting": "SK-LU-1; first compound 2 µM", "value": 0.301}, {"measurement": "relative viability", "setting": "SW 900; first compound 0.02 µM", "value": 0.624}, {"measurement": "relative viability", "setting": "SW 900; first compound 0.2 µM", "value": 0.443}, {"measurement": "relative viability", "setting": "SW 900; first compound 0.6325 µM", "value": 0.647}, {"measurement": "relative viability", "setting": "SW 900; first compound 2 µM", "value": 0.529}]}
